Reference: publication PMC5814047, “Peptidic inhibitors of insulin-degrading enzyme with potential for dermatological applications discovered via phage display” (PLoS ONE, 2018)
Where “and” joins values, the source holds several entries; their conditions need not be identical. Equal entries are not always repeated. Bridge positions count the residues as written; N and C are the ends. Peptide text beside a SMILES is read from it.

Key:
[1] = test system: primary murine skin fibroblasts; experiment: Insulin degradation in primary murine skin fibroblasts (ELISA of conditioned medium); format: cell-based; conditions: for Percent insulin remaining, Mean / Percent insulin remaining: P12-3A 100 uM, 100nM insulin added; for Percent insulin remaining, Mean: N 4; for Percent insulin remaining: conditioned medium, individual replicates
Procedure: (§1) Insulin promotes wound healing and overall skin health by affecting a number of processes, including cell proliferation, cell migration, and the production and secretion of ECM components, particularly type I collagen. We therefore assessed the ability of P12-3A to influence these processes in cultured skin fibroblasts and keratinocytes. To that end, primary mouse skin fibroblasts were grown for 4 d in multiple concentrations of insulin in the presence or absence of P12-3A, and insulin concentration over time was monitored by ELISA. […] Finally, the effects of P12-3A on collagen production in were assessed at both the transcriptional and the posttranslational level in confluent monolayers of fibroblasts. After 4 d of treatment with P12-3A (100 μM), mRNA levels for the major form of collagen, alpha-1 type I collagen (COL1A1), were quantified by RT-PCR and found to be increased to ~2.6 times the levels of untreated cells (Fig 4C). To assess overall levels of collagen production and secretion, we quantified levels of hydroxyproline, a modified amino acid present almost exclusively in collagen proteins. […] Western blotting also confirmed that mature, cell-associated collagen levels were increased in the presence of P12-3A (Fig 4E).
(§2) Fig 4 Effects of P12-3A on cultured skin cells. A, Insulin concentrations as a function of time in logarithmically growing primary murine skin fibroblasts in the absence or presence of P12-3A (100 μM). […] Data are mean ± SEM of 4 independent replications. *P<0.05, **P<0.01. B, Proliferation of cells in the absence or presence of P12-3A (100 μM). Data are mean ± SEM of 6 independent replications. […] C,D,E, P12-3A (100 μM) potentiates insulin-induced collagen production in skin fibroblasts. Collagen production was assessed by COL1A1 mRNA levels (C), levels of hydroxyproline secreted into the medium (D), and cell-associated mature alpha-1 type I collagen levels detected by Western blotting (E). Data are mean ± SD of 4 independent replications. *P<0.05, **P<0.01. […] Migration of HaCaT cells 48 h after induction of a scratch wound in the presence of the indicated quantities of insulin and/or P12-3A (100 μM). Data are mean ± SEM of 6 independent replications. *P<0.05, **P<0.01.
IDE activity was quantified by monitoring the degradation of Mca-[…](Dnp) (FRET1, 5 μM), fluoresceinated and biotinylated amyloid ß-protein (FAßB; 500 nM) or recombinant human insulin (50 nM) in PBS supplemented with 0.05% BSA. FRET1 degradation was measured by changes in fluorescence (λex = 340 nm, λem = 420 nm); FAßB degradation was monitored by fluorescence polarization (λex = 488 nm, λem = 525 nm), as described; and insulin degradation was quantified by ELISA. In vitro activity assays incorporated recombinant human IDE (1 nM) purified from bacteria. For quantitation of insulin degradation in primary murine skin fibroblasts, cells (1 x 10^5/well) were plated in 96-well plates and maintained in DMEM supplemented with 10% fetal bovine serum (FBS), 2mM glutamine, penicillin and streptomycin. After addition of insulin (10 nM or 100 nM), samples of conditioned medium were removed daily and quickly frozen, then insulin levels were quantified in parallel by ELISA according to manufacturer’s recommendations (Crystal Chem, Downers Grove, IL, USA). Assessment of the activity of P12-3A against a variety of matrix-metalloproteases was conducted using the Matrix Metalloproteinase (MMP) Inhibitor Profiling Kit, Fluorometric RED (Enzo Life Sciences, Inc., Farmingdale, NY, USA) according to manufacturer’s recommendations using the broad-spectrum MMP inhibitor, NNGH, as a positive control.

HaCaT cells = experiment: In vitro scratch wound migration assay; format: cell-based; conditions: for migration of keratinocytes, single replicates (average of two observers) / migration of keratinocytes, Mean: 48 hr after scratching; for migration of keratinocytes, Mean: N 6
Procedure: as §1, §2
Cell migration in HaCaT cells after induction of scratch wounds was quantified essentially as described. Briefly, HaCaT cells maintained in optimized DMEM (AddexBio Technologies, San Diego, CA, USA) supplemented with 10% FBS, penicillin and streptomycin, were grown to confluency in 24-well tissue culture plates, and scratch wounds were induced with a 200-μL pipette tip. After growth for 48 h in the absence or presence of insulin (10 nM or 100 nM) and/or P12-3A (100 μM), cell migration distance was quantified by two independent, blinded observers using a Nikon TMS inverted light microscope (Nikon Corp., Melville, NY, USA) fitted with a ruler reticle.

CC(C)C[C@H](NC(=O)[C@H](CO)NC(=O)[C@@H](N)CCC(N)=O)C(=O)N1CCC[C@H]1C(=O)N[C@@H](Cc1c[nH]c2ccccc12)C(=O)N[C@H]1CSSC[C@@H](C(=O)N[C@H](C(=O)N[C@H](C(N)=O)[C@@H](C)O)C(C)C)NC(=O)[C@H](Cc2c[nH]cn2)NC(=O)[C@@H]2CCCN2C(=O)[C@H](Cc2ccc(O)cc2)NC1=O [P12-3A] (H-QSLPWCYPHCVT-NH2; disulfide 6-10 (inferred))
insulin levels over time in cells ([1]; 100 μM P12-3A, 10 nM insulin, up to day 4, logarithmically growing cells): remain constant
Percent insulin remaining, Mean ([1]; t 0 d): 100.0%
Percent insulin remaining ([1]; t 0 d): 85.1403% and 114.724% and 102.178% and 97.9576%
Percent insulin remaining, Mean ([1]; t 1 d): 102.0%
Percent insulin remaining ([1]; t 1 d): 95.514% and 88.3018% and 126.115% and 98.0694%
Percent insulin remaining, Mean ([1]; t 2 d): 97.0%
Percent insulin remaining ([1]; t 2 d): 100.082% and 83.3067% and 102.861% and 101.75%
Percent insulin remaining, Mean ([1]; t 3 d): 91.0%
Percent insulin remaining ([1]; t 3 d): 84.576% and 69.9969% and 96.4916% and 112.935%
Percent insulin remaining, Mean ([1]; t 4 d): 96.0%
Percent insulin remaining ([1]; t 4 d): 100.148% and 97.4317% and 103.413% and 83.0078%
migration of keratinocytes, single replicates (average of two observers) (HaCaT cells; 10 nM ins): 10.5 mm and 10.6 mm and 10.1 mm and 8.4 mm and 4.9 mm and 12.6 mm
migration of keratinocytes, Mean (HaCaT cells; 10 nM ins): 9.5 mm
migration of keratinocytes, single replicates (average of two observers) (HaCaT cells; 100 nM ins): 10.1 mm and 11.5 mm and 16.4 mm and 11.4 mm and 14.4 mm and 18.1 mm
migration of keratinocytes, Mean (HaCaT cells; 100 nM ins): 13.6 mm
migration of keratinocytes (HaCaT cells; 100 μM P12-3A, different concentrations of insulin, 48 h): statistically significant increases
migration of keratinocytes, single replicates (average of two observers) (HaCaT cells; no ins): 5.0 mm and 5.9 mm and 3.4 mm and 8.3 mm and 3.2 mm and 4.0 mm
migration of keratinocytes, Mean (HaCaT cells; no ins): 4.9 mm
